# Assay results taken from patent publication US20250241892A1, “5-METHOXY-N,N-[…][…] THE TREATMENT OF PSYCHOMOTOR RETARDATION” (GH RESEARCH IRELAND LIMITED, priority 2022, published 2025).
# Experiments:
# [1] = Pharmacokinetics of 5-MeO-DMT and bufotenine after inhalation; type: in vivo, human
# Procedure: Blood samples were obtained at 1; 2; 4; 7; 10; 15; 20; 30; 45 min and 1; 1.5; 2; 3; 4 hours after administration.
# PK parameters were generated by algebraic analysis of the concentration versus time plots for each individual. The analysis was carried out using the software Phoenix WinNonlin 6.3.
# [2] = tested on: patients with treatment-resistant major depressive disorder (TRD); test: Phase 1/2 clinical trial of inhaled 5-MeO-DMT in TRD; details: for Patients who experienced at least one ADR: n=4; for Patients with MADRS remission: n=4, day seven after dosing
# Procedure: Patients were assigned to different groups. In the context of the present invention, the group who received a single, 12 mg dose and the group who underwent an intra-day individualized dosing regimen (IDR) that allowed for multiple, escalating doses (6 mg, 12 mg and 18 mg) within a single day, driven by the intensity of the patient-reported psychedelic experience are of interest.
# This trial was designed in two parts. Part A was an open-label, single-arm, single-dose Phase 1 trial with two dose levels (12 mg (n=4) and 18 mg (n=4)). […] The primary endpoint of Part B was to assess the effects on the severity of depression, as assessed by the proportion of patients in remission on day seven after dosing, defined as a MADRS total score of less than or equal to 10.
# [3] = TRD, 12 mg n=4, 2 hours after dose, baseline 16
# [4] = TRD, 12 mg n=4, 3 hours after dose, baseline 18
# [5] = TRD, 12 mg n=4, 3 hours after dose, baseline 25
# [6] = TRD, 12 mg n=4, day 1, baseline 12
# [7] = TRD, 12 mg n=4, day 1, baseline 13
# [8] = TRD, 12 mg n=4, day 1, baseline 16
# [9] = TRD, 12 mg n=4, day 1, baseline 25
# [10] = TRD, 12 mg n=4, day 7, baseline 12
# [11] = TRD, 12 mg n=4, day 7, baseline 13
# [12] = TRD, 12 mg n=4, day 7, baseline 16
# [13] = TRD, 12 mg n=4, day 7, baseline 25
# [14] = TRD, IDR n=8, 2 hours after last dose, baseline 27
# [15] = TRD, IDR n=8, 2 hours after last dose, baseline 28
# [16] = TRD, IDR n=8, day 1, baseline 25
# [17] = TRD, IDR n=8, day 1, baseline 27
# [18] = TRD, IDR n=8, day 7, baseline 25
# [19] = TRD, IDR n=8, day 7, baseline 27
# [20] = TRD, IDR n=8, day 7, baseline 30
structure (smiles),measurement,setting,value
COc1ccc2[nH]cc(CCN(C)C)c2c1 [5-MeO-DMT],Detectability in plasma,"[1]; 3 hours after inhalation, whole dose range 6, 12, 18 mg",no longer detectable
same,Pharmacokinetic measurements with uptitration dosing schemes,[1]; compared with single doses,Substantially similar results
same,"Changes in safety laboratory analyses, vital signs, psychiatric safety assessments, measures of cognitive function",[2]; Part A and Part B,No clinically significant changes
same,SAEs reported,"[2]; Part A, 12 mg and 18 mg groups",No SAEs
same,Patients who experienced at least one ADR,"[2]; Part A, 12 mg single dose",3 of 4
same,Patients with MADRS remission,"[2]; Part A, 12 mg",50%
same,Patients who experienced at least one ADR,"[2]; Part A, 18 mg single dose",3 of 4
same,Patients with MADRS remission,"[2]; Part A, 18 mg",25%
same,Outcome of ADRs,"[2]; Part B, IDR, n=8",All ADRs resolved spontaneously
same,SAEs reported,"[2]; Part B, IDR, n=8",No SAEs
same,"MADRS Suicidal Thoughts, sum of patient scores","[2]; TRD, 12 mg n=4, 2 hours after dose, baseline 8",3
same,"MADRS Inner Tension, sum of patient scores","[2]; TRD, 12 mg n=4, 2 hours after dose, baseline 13",2
same,"MADRS Concentration Difficulties, sum of patient scores",[2]; [3],7
same,"MADRS Inability to Feel, sum of patient scores",[2]; [3],9
same,"MADRS Lassitude, percentage improvement",[2]; [3],38%
same,"MADRS Lassitude, sum of patient scores",[2]; [3],10
same,"MADRS Pessimistic Thoughts, percentage improvement",[2]; [3],50.00%
same,"MADRS Pessimistic Thoughts, sum of patient scores",[2]; [3],8
same,"BPRS Blunted Affect, sum of patient scores","[2]; TRD, 12 mg n=4, 3 hours after dose, baseline 11",8
same,"BPRS Emotional Withdrawal, sum of patient scores","[2]; TRD, 12 mg n=4, 3 hours after dose, baseline 13",11
same,"BPRS Tension, sum of patient scores","[2]; TRD, 12 mg n=4, 3 hours after dose, baseline 14",9
same,"BPRS Guilt Feelings, percentage improvement",[2]; [4],50.00%
same,"BPRS Guilt Feelings, sum of patient scores",[2]; [4],9
same,"BPRS Anxiety, percentage improvement",[2]; [5],56.00%
same,"BPRS Anxiety, sum of patient scores",[2]; [5],11
same,"MADRS Suicidal Thoughts, sum of patient scores","[2]; TRD, 12 mg n=4, day 1, baseline 8",5
same,"BPRS Blunted Affect, sum of patient scores","[2]; TRD, 12 mg n=4, day 1, baseline 11",6
same,"MADRS Reduced Sleep, percentage improvement",[2]; [6],17%
same,"MADRS Reduced Sleep, sum of patient scores",[2]; [6],10
same,"BPRS Emotional Withdrawal, sum of patient scores",[2]; [7],8
same,"MADRS Inner Tension, sum of patient scores",[2]; [7],3
same,"BPRS Tension, sum of patient scores","[2]; TRD, 12 mg n=4, day 1, baseline 14",6
same,"MADRS Concentration Difficulties, sum of patient scores",[2]; [8],2
same,"MADRS Inability to Feel, sum of patient scores",[2]; [8],1
same,"MADRS Lassitude, percentage improvement",[2]; [8],100%
same,"MADRS Lassitude, sum of patient scores",[2]; [8],0
same,"MADRS Pessimistic Thoughts, sum of patient scores",[2]; [8],7
same,"BPRS Guilt Feelings, sum of patient scores","[2]; TRD, 12 mg n=4, day 1, baseline 18",5
same,"BPRS Anxiety, percentage improvement",[2]; [9],76.00%
same,"BPRS Anxiety, sum of patient scores",[2]; [9],6
same,"MADRS Suicidal Thoughts, sum of patient scores","[2]; TRD, 12 mg n=4, day 7, baseline 8",7
same,"BPRS Blunted Affect, sum of patient scores","[2]; TRD, 12 mg n=4, day 7, baseline 11",5
same,"MADRS Reduced Sleep, percentage improvement",[2]; [10],50%
same,"MADRS Reduced Sleep, sum of patient scores",[2]; [10],6
same,"BPRS Emotional Withdrawal, sum of patient scores",[2]; [11],6
same,"MADRS Inner Tension, sum of patient scores",[2]; [11],5
same,"BPRS Tension, sum of patient scores","[2]; TRD, 12 mg n=4, day 7, baseline 14",6
same,"MADRS Concentration Difficulties, sum of patient scores",[2]; [12],3
same,"MADRS Inability to Feel, sum of patient scores",[2]; [12],1
same,"MADRS Lassitude, percentage improvement",[2]; [12],81%
same,"MADRS Lassitude, sum of patient scores",[2]; [12],3
same,"MADRS Pessimistic Thoughts, percentage improvement",[2]; [12],50.00%
same,"MADRS Pessimistic Thoughts, sum of patient scores",[2]; [12],8
same,"BPRS Guilt Feelings, sum of patient scores","[2]; TRD, 12 mg n=4, day 7, baseline 18",5
same,"BPRS Anxiety, percentage improvement",[2]; [13],76.00%
same,"BPRS Anxiety, sum of patient scores",[2]; [13],6
same,"MADRS Suicidal Thoughts, sum of patient scores","[2]; TRD, IDR n=8, 2 hours after last dose, baseline 11",3
same,"MADRS Inner Tension, sum of patient scores","[2]; TRD, IDR n=8, 2 hours after last dose, baseline 26",11
same,"MADRS Lassitude, percentage improvement",[2]; [14],63%
same,"MADRS Lassitude, sum of patient scores",[2]; [14],10
same,"MADRS Pessimistic Thoughts, percentage improvement",[2]; [15],75.00%
same,"MADRS Pessimistic Thoughts, sum of patient scores",[2]; [15],7
same,"MADRS Concentration Difficulties, sum of patient scores","[2]; TRD, IDR n=8, 2 hours after last dose, baseline 30",11
same,"MADRS Inability to Feel, sum of patient scores","[2]; TRD, IDR n=8, 2 hours after last dose, baseline 36",12
same,"BPRS Emotional Withdrawal, sum of patient scores","[2]; TRD, IDR n=8, 3 hours after last dose, baseline 13",8
same,"BPRS Blunted Affect, sum of patient scores","[2]; TRD, IDR n=8, 3 hours after last dose, baseline 15",11
same,"BPRS Tension, sum of patient scores","[2]; TRD, IDR n=8, 3 hours after last dose, baseline 16",11
same,"BPRS Guilt Feelings, sum of patient scores","[2]; TRD, IDR n=8, 3 hours after last dose, baseline 34",14
same,"BPRS Anxiety, sum of patient scores","[2]; TRD, IDR n=8, 3 hours after last dose, baseline 37",19
same,"MADRS Suicidal Thoughts, sum of patient scores","[2]; TRD, IDR n=8, day 1, baseline 11",1
same,"BPRS Emotional Withdrawal, sum of patient scores","[2]; TRD, IDR n=8, day 1, baseline 13",8
same,"BPRS Blunted Affect, sum of patient scores","[2]; TRD, IDR n=8, day 1, baseline 15",8
same,"BPRS Tension, sum of patient scores","[2]; TRD, IDR n=8, day 1, baseline 16",11
same,"MADRS Reduced Sleep, percentage improvement",[2]; [16],52%
same,"MADRS Reduced Sleep, sum of patient scores",[2]; [16],12
same,"MADRS Inner Tension, sum of patient scores","[2]; TRD, IDR n=8, day 1, baseline 26",6
same,"MADRS Lassitude, percentage improvement",[2]; [17],81%
same,"MADRS Lassitude, sum of patient scores",[2]; [17],5
same,"MADRS Pessimistic Thoughts, sum of patient scores","[2]; TRD, IDR n=8, day 1, baseline 28",4
same,"MADRS Concentration Difficulties, sum of patient scores","[2]; TRD, IDR n=8, day 1, baseline 30",1
same,"BPRS Guilt Feelings, sum of patient scores","[2]; TRD, IDR n=8, day 1, baseline 34",11
same,"MADRS Inability to Feel, sum of patient scores","[2]; TRD, IDR n=8, day 1, baseline 36",2
same,"BPRS Anxiety, sum of patient scores","[2]; TRD, IDR n=8, day 1, baseline 37",16
same,"MADRS Suicidal Thoughts, sum of patient scores","[2]; TRD, IDR n=8, day 7, baseline 11",3
same,"BPRS Emotional Withdrawal, sum of patient scores","[2]; TRD, IDR n=8, day 7, baseline 13",8
same,"BPRS Blunted Affect, sum of patient scores","[2]; TRD, IDR n=8, day 7, baseline 15",8
same,"BPRS Tension, sum of patient scores","[2]; TRD, IDR n=8, day 7, baseline 16",10
same,"MADRS Reduced Sleep, percentage improvement",[2]; [18],64%
same,"MADRS Reduced Sleep, sum of patient scores",[2]; [18],9
same,"MADRS Inner Tension, sum of patient scores","[2]; TRD, IDR n=8, day 7, baseline 26",12
same,"MADRS Lassitude, percentage improvement",[2]; [19],89%
same,"MADRS Lassitude, sum of patient scores",[2]; [19],3
same,"MADRS Pessimistic Thoughts, sum of patient scores","[2]; TRD, IDR n=8, day 7, baseline 28",3
same,"MADRS Concentration Difficulties, percentage improvement",[2]; [20],70.00%
same,"MADRS Concentration Difficulties, sum of patient scores",[2]; [20],9
same,"BPRS Guilt Feelings, sum of patient scores","[2]; TRD, IDR n=8, day 7, baseline 34",10
same,"MADRS Inability to Feel, sum of patient scores","[2]; TRD, IDR n=8, day 7, baseline 36",6
same,"BPRS Anxiety, sum of patient scores","[2]; TRD, IDR n=8, day 7, baseline 37",17
